Laboratory results as given in patent publication US9163032B2, “Esters of DCPLA and methods of treatment using the same” (Blanchette Rockefeller Neurosciences Institute, priority 2011, dated 2015).

Assays:
[1] = test system: GSK-3β; test: Phospho GSK-3β (Ser-9) Western Blot in ASPD treated primary neurons; assay type: cell-based, rat
Experimental: Phospho GSK-3β expression was normalized against total GSK-3β expression. […] Data are represented as mean±SEM. (Student's t test *.p<0.05; and **, p<0.005 n=3).
(§1) Cells were harvested in homogenizing buffer containing 10 mM Tris-Cl (pH 7.4), 1 mM PMSF (phenylmethylsulfonyl fluoride), 1 mM EGTA, 1 mM EDTA, 50 mM NaF, and 20 μM leupeptin, and were lysed by sonication. The homogenate was centrifuged at 100,000×g for 15 min at 4° C. to obtain the cytosolic fraction (supernatant) and membrane (pellet). The pellet was resuspended in the homogenizing buffer by sonication. For whole cell protein isolation from primary neurons, the homogenizing buffer contained 1% Triton X-100. Protein concentration was measured using the Coomassie Plus (Bradford) Protein Assay kit (Pierce, USA). Following quantification, 20 μg of protein from each sample was subjected to SDS-PAGE analysis in a 4-20% gradient Tris-Glycine gel (Invitrogen, USA). The separated protein was then transferred to a nitrocellulose membrane. The membrane was blocked with 5% BSA at room temperature for 15 min and was incubated with primary antibody overnight at 4° C. […] The blot was imaged in an ImageQuant RT-ECL (GE Life Sciences, Piscataway, N.J.) and densitometric quantification was performed using IMAL software (Blanchette Rockefeller Neurosciences Institute, Morgantown, W. Va.). […]

[2] = test system: synaptophysin; test: Synaptophysin expression in primary hippocampal neurons (immunofluorescence, Western Blot); assay type: cell-based, rat
Experimental: (§2) Cells were grown in two chambered slides (Nunc, USA) at low density. For immunofluorescence staining, the cells were washed with PBS (pH 7.4) and fixed with 4% paraformaldehyde for 4 min. Following fixation, the cells were blocked and permeabilized with 5% serum and 0.3% Triton X-100 in 1×PBS for 30 min. Cells were washed three times with 1×PBS and incubated with primary antibodies for 1 hr at 1:100 dilution. After the incubation, the slides were again washed three times in 1×PBS and were incubated with the FITC anti-mouse IgG and Rhodamine anti-rabbit IgG for 1 hr at 1:400 dilution. The cells were further washed and stained with DAPI (4′,6-diamidino-2′-phenylindole, dihydrochloride) (Thermo Scientific, USA) to stain the nucleus. Finally, the slides were washed and mounted in Pro Long Gold antifade mounting solution (Invitrogen, USA) and were viewed under a LSM 710 Meta confocal microscope (Zeiss) at 350 nm, 490 nm, and 540 nm excitation and 470 nm, 525 nm, and 625 nm emission for DAPI, FITC, and Rhodamine respectively. Six individual fields at 63× oil lens magnification were analyzed for the mean fluorescence intensity (MFI) in each channel.
(§3) Cells were harvested in homogenizing buffer containing 10 mM Tris-Cl (pH 7.4), 1 mM PMSF (phenylmethylsulfonyl fluoride), 1 mM EGTA, 1 mM EDTA, 50 mM NaF, and 20 μM leupeptin, and were lysed by sonication. The homogenate was centrifuged at 100,000×g for 15 min at 4° C. to obtain the cytosolic fraction (supernatant) and membrane (pellet). The pellet was resuspended in the homogenizing buffer by sonication. For whole cell protein isolation from primary neurons, the homogenizing buffer contained 1% Triton X-100. Protein concentration was measured using the Coomassie Plus (Bradford) Protein Assay kit (Pierce, USA). Following quantification, 20 μg of protein from each sample was subjected to SDS-PAGE analysis in a 4-20% gradient Tris-Glycine gel (Invitrogen, USA). The separated protein was then transferred to a nitrocellulose membrane. The membrane was blocked with 5% BSA at room temperature for 15 min and was incubated with primary antibody overnight at 4° C. After the incubation, it was washed three times with TBS-T (Tris Buffered Saline-Tween 20) and further incubated with alkaline phosphatase conjugated secondary antibody (Jackson Immunoresearch Laboratories, USA) at 1:10000 dilution for 45 min. The membrane was finally washed three times with TBS-T and developed using the 1-step NBT-BCIP substrate (Pierce, USA). The blot was imaged in an ImageQuant RT-ECL (GE Life Sciences, Piscataway, N.J.) and densitometric quantification was performed using IMAL software (Blanchette Rockefeller Neurosciences Institute, Morgantown, W. Va.). For translocation assays, PKC activation was represented as the percentage of total protein in the membrane (membrane/cytosol+membrane).
(§4) To estimate the synaptic damage caused by the ASPDs on primary hippocampal neurons, the expression of synaptophysin (a presynaptic marker) and PSD-95 (a postsynaptic marker) was measured by immunofluorescence staining. […] Following a 20 hr incubation period, the cells were stained for nucleus, PSD-95, and synaptophysin. Expression levels were calculated as the change of percentage in mean fluorescence intensity compared to untreated cells.
(§5) Primary neurons, treated and untreated, were immunostained for MAP-2, synaptophysin, and PSD-95 to determine the synaptic integrity. […] Following a 20 hr incubation period, the cells were stained for MAP-2, PSD-95, and synaptophysin as described above.

[3] = test system: cultured primary rat hippocampal neurons; test: Neuroprotection against ASPD induced toxicity, MTT assay, primary neurons; assay type: cell-based
Experimental: Viability of cells was measured by MTT assay. MTT (i.e., 3-(4,5-dimethylthiazol-2-yl)-2,5-diphenyltetrazolium bromide) is a tetrazolium salt that is cleaved to formazan by the succinate dehydrogenase, which is only active in viable cells. After solubilization of the formazan, the amount of dye can be quantified with a microplate reader at 570 nm along with a reference of 630 nm. For the MTT assay, 5×10^4 primary rat hippocampal neurons from 18-day-old embryonic Sprague-Dawley rat brains or SH-SY5Y cells were plated on each well of 24-well plates coated with poly-D-lysine. After treatment, the cells were washed with 1× PBS and were incubated with 200 μl of 1 mg/ml MTT solution (Sigma, USA) at 37° C. for 2 hr. Then the MTT-solution was removed and the cells were lysed with 200 μl isopropanol containing 0.04 M HCl and […] for 10 min. Finally, the reading was taken at 570 nm and 630 nm. All the samples were done in triplicate and the data were represented as the percentage of control.
Bryostatin 1, DCPLA, and DCPLA-ME were tested against ASPD-induced cytotoxicity to determine their neuroprotective efficacy.

[4] = test system: MAP-2; test: MAP-2 expression in primary hippocampal neurons (immunofluorescence); assay type: cell-based, rat; conditions: 20 hr
Experimental: as §2
Primary neurons, treated and untreated, were immunostained for MAP-2, synaptophysin, and PSD-95 to determine the synaptic integrity. […]

[5] = test system: PKC-ε; test: PKC-ε translocation to membrane in SH-SY5Y neuroblastoma cells (Western Blot); assay type: cell-based, human
Experimental: as §3

[6] = test system: PKC-ε; test: PKC-ε level in primary neurons (immunofluorescence, Western Blot); assay type: cell-based, rat
Experimental: as §2
as §1, with “For whole cell protein isolation from primary neurons, the homogenizing buffer contained 1% Triton X-100.” left out, “USA).” for “USA). The separated protein was then transferred to a nitrocellulose membrane. The membrane was blocked with 5% BSA at room temperature for 15 min and was incubated with primary antibody overnight at 4° C.”

[7] = test system: PSD-95; test: PSD-95 expression in primary hippocampal neurons (immunofluorescence); assay type: cell-based, rat; conditions: 20 hr
Experimental: as §2, §4, §5

In the case of `CCCCCC1CC1CC1CC1CCCCCCCC(=O)OC` (stereo not drawn) [DCPLA-ME, DCPLA methyl ester], the “phosphorylation of the Ser-9 residue of GSK-3β” value ([1]; ASPD (50 nM) + DCPLA-ME (100 nM)) was “restored phosphorylation of the Ser-9 residue of GSK-3β to normal levels”, the “synaptophysin mean fluorescence intensity” value ([2]; 50 nM ASPD + 100 nM DCPLA-ME, 20 hr) was 87.48±3.75 % of control and the “more viable than Bryostatin 1-treated cells” value ([3]; 50 nM ASPD, DCPLA-ME 100 nM vs Bryostatin 1 0.27 nM) was 16%. For the same molecule, the “more viable than DCPLA-treated cells” value ([3]; 50 nM ASPD, DCPLA-ME 100 nM vs DCPLA 10 μM) was 8%, the “MAP-2 mean fluorescence intensity” value ([4]; 50 nM ASPD + 100 nM DCPLA-ME) was 68.87±2.0 % of control and the “PKC-ε translocation in ASPD-treated cells” value ([5]; ASPD + DCPLA-ME, FIG. 8D) was “restored PKC-ε translocation to normal”. The “PKC-ε protein level (Western Blot)” value ([6]; ASPD-treated primary neurons, 100 nM DCPLA-ME) was “restored the PKC-ε protein level to normal” and the “PSD-95 mean fluorescence intensity” value ([7]; 50 nM ASPD + 100 nM DCPLA-ME) was 99.2±11.3 % of control.

For “ASPD: Amylospheroids from Aβ1-42, 100 kDa filter retentate, containing 39 monomers on average”, the GSK-3β activation state ([1]; ASPD 50 nM) was “activated GSK-3β”, the “synaptophysin mean fluorescence intensity” value ([2]; 50 nM ASPD, 20 hr) was 63.3±3.8 % of control and the “synaptophysin mean fluorescence intensity” value ([2]; 50 nM ASPD, 20 hr, listed as ASPDs) was 62.45±6.74 % of control. The “decrease in synaptophysin intensity” value ([2]; 50 nM, 20 hr) was 40%, the “decrease of synaptophysin expression (Western Blot)” value ([2]; ASPD) was 26% and the “synaptophysin expression (Western Blot)” value ([2]; ASPD, relative to control) was 73.30%. The “viability of primary neurons” value ([3]; 50 nM ASPD alone, 20 hr) was 57.6±1.6%, the “MAP-2 mean fluorescence intensity” value ([4]; 50 nM ASPD) was 40.7±6.2 % of control and the “reduction of PKC-ε membrane translocation” value ([5]; ASPD 50 nM) was 46%. The PKC-ε membrane translocation ([5]; ASPD 50 nM, relative to control) was 69.98±3.27%, the PKC-ε immunofluorescence level ([6]; ASPD, 20 hr, primary neurons) was 60.81±5.85 % compared to control and the “PSD-95 mean fluorescence intensity” value ([7]; 50 nM ASPD) was 67.63±7.24 % of control. For the same molecule, the “decrease of PSD-95 expression” value ([7]; 50 nM ASPD) was 42%.
